Reference: PubChem BioAssay (NCI)
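Step 1: Grow cells in 96-well plates. Step 2: Expose to compound for 48 hours at 5 concentrations. Step 3: Interpolate endpoints linearly; if unreached, use highest concentration. GI50 = concentration required for 50% inhibition of growth. TGI: total growth inhibition.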

Experiments:
Assay in all cases: NCI tumour cell line growth inhibition, 48 h
HOP-18 NSCLC = test system: HOP-18 NSCLC
XF 498 CNS = test system: XF 498 CNS
RXF-631 renal = test system: RXF-631 renal
P388 leukemia = test system: P388 leukemia
SN12K1 renal = test system: SN12K1 renal
P388/ADR leukemia = test system: P388/ADR leukemia

## N#CN=C(N(Cc1ccccc1)Cc1ccccc1)N(Cc1ccccc1)Cc1ccccc1
HOP-18 NSCLC
  TGI: > 100 µM
XF 498 CNS
  TGI: 89.8 µM

## C[C@]12CC[C@H](O)CC1=CC[C@@H]1C2CC[C@]2(C)C(=O)N(N)C(=O)CC12 (stereo partly drawn)
HOP-18 NSCLC
  TGI: > 100 µM
XF 498 CNS
  TGI: > 100 µM
RXF-631 renal
  TGI: > 100 µM

## CC(N)Cc1ccc(C(=O)Cl)cc1 (stereo not drawn)
XF 498 CNS
  TGI: > 100 µM
RXF-631 renal
  TGI: > 100 µM

## COc1cc([C@@H]2OCC3C(c4ccc5c(c4)OCO5)OCC32)cc(OC)c1OC (stereo partly drawn)
XF 498 CNS
  TGI: > 100 µM

## Cc1cc(=O)[nH]c(NN2C(Cl)C(=O)C2c2ccccc2O)n1 (stereo not drawn)
HOP-18 NSCLC
  TGI: 8.97 µM

## O=C1c2ccccc2C2C1N2C(=O)C(F)(F)F (stereo not drawn)
HOP-18 NSCLC
  TGI: > 100 µM
XF 498 CNS
  TGI: > 100 µM
RXF-631 renal
  TGI: > 100 µM

## CNC(=O)C(C)C1CCC2(C)C=CC(=O)C(C)=C2C1O (stereo not drawn)
XF 498 CNS
  TGI: > 100 µM
P388 leukemia
  TGI: > 100 µM
SN12K1 renal
  TGI: > 100 µM
P388/ADR leukemia
  TGI: > 100 µM

## Cc1c2cnccc2c(C)c2c1c1ccccc1n2CCCN
HOP-18 NSCLC
  TGI: 2.65 µM
XF 498 CNS
  TGI: 1.4 µM
P388 leukemia
  TGI: 0.212 µM
SN12K1 renal
  TGI: 0.831 µM
P388/ADR leukemia
  TGI: 0.707 µM

## CNS(=O)(=O)NNS(=O)(=O)c1ccc2ccccc2c1
HOP-18 NSCLC
  TGI: > 100 µM

## CC(=O)Nc1ccc(-c2nnc(SCC(=O)Nc3ccc([N+](=O)[O-])cc3)o2)cc1
HOP-18 NSCLC
  TGI: 29.9 µM

## O=C(Nc1ccc(C2=NCCN2)cc1)c1cncc(C(=O)Nc2ccc(C3=NCCN3)cc2)c1
HOP-18 NSCLC
  TGI: > 100 µM
XF 498 CNS
  TGI: > 100 µM
P388 leukemia
  TGI: 82.5 µM
SN12K1 renal
  TGI: > 100 µM
P388/ADR leukemia
  TGI: > 100 µM

## O=C1CCC23CC(C=CC=C12)n1c(=O)n(-c2ccccc2)c(=O)n13 (stereo not drawn)
HOP-18 NSCLC
  TGI: > 100 µM
XF 498 CNS
  TGI: > 100 µM
P388 leukemia
  TGI: > 100 µM
SN12K1 renal
  TGI: > 100 µM
P388/ADR leukemia
  TGI: > 100 µM

## CCN(CC)CCC(=O)Nc1ccc2c(c1)C(=O)c1ccc(NC(=O)CCN(CC)CC)cc1C2=O
HOP-18 NSCLC
  TGI: 18.4 µM

## CC(=O)NC1=C(NCCC(C)C)C(=O)c2ccccc2C1=O
XF 498 CNS
  TGI: > 50 µM

## O=C([O-])CC(=O)[O-].O=C([O-])CC(=O)[O-].[K+].[Pd+2]
HOP-18 NSCLC
  GI50: > 100 µM
  TGI: > 100 µM

## Cc1cccc2c(=O)cc(-c3ccccc3)[nH]c12
XF 498 CNS
  TGI: > 100 µM
